Data on eight compounds can be found in ChEMBL document CHEMBL4431384, “Indole-based allosteric inhibitors of HIV-1 integrase” (Bioorg Med Chem Lett, 2016).

Experiment [1] has as its target T1, Human immunodeficiency virus type 1 integrase (Human immunodeficiency virus 1, UniProt Q7ZJM1). As to the kind of experiment: Inhibition of recombinant full length C-terminal His-tagged HIV1 integrase expressed in Escherichia coli BL21(DE3) cells assessed as inhibition of recombinant C-terminal FLAG-tagged LEDGF/p75-induced integration of viral 32-mer blunt-ended U5 DNA into pBR322 DNA preincubated with enzyme for 30 mins followed by viral and target DNA addition and subsequent addition of LEDGF/p75 after 5 mins measured after 90 mins by HTRF assay. The experiment is classed as cell-based.

In experiment [2] the target is T1, Human immunodeficiency virus type 1 integrase. As to the kind of experiment: Inhibition of recombinant full length C-terminal His-tagged HIV1 integrase expressed in Escherichia coli BL21(DE3) cells assessed as reduction in LEDGF/p75 independent 3' processing activity using 32P-labeled blunt ended 21-mer DNA as substrate preincubated for 30 mins followed by substrate addition measured after 1 hr by […].

For experiment [3] the target is unchanged. In words: Inhibition of recombinant full length HIV1 C-terminal His-tagged integrase multimerization with N-terminal FLAG-tagged integrase expressed in Escherichia coli BL21(DE3) cells after 2.5 hrs by HTRF assay.
The target of experiment [4] is T2, Human immunodeficiency virus type 1 integrase (Human immunodeficiency virus 1, UniProt Q7ZJM1, A128T). As to the kind of experiment: Inhibition of recombinant full length C-terminal His-tagged HIV1 integrase A128T mutant expressed in Escherichia coli BL21(DE3) cells assessed as reduction in LEDGF/p75 independent 3' processing activity using 32P-labeled blunt ended 21-mer DNA as substrate preincubated for 30 mins followed by substrate addition measured after 1 hr by […].

Experiment [5] addresses T2, Human immunodeficiency virus type 1 integrase. In words: Inhibition of recombinant full length HIV1 C-terminal His-tagged integrase A128T mutant multimerization with N-terminal FLAG-tagged integrase A128T mutant expressed in Escherichia coli BL21(DE3) cells after 2.5 hrs by HTRF assay.
Experiment [6] deals with T1, Human immunodeficiency virus type 1 integrase. In words: Inhibition of C-terminal FLAG-tagged LEDGF/p75 binding to recombinant full length N-terminal His-tagged HIV1 integrase expressed in Escherichia coli BL21(DE3) cells preincubated with enzyme for 30 mins followed by LEDGF/p75 addition by HTRF assay.

T1 sequence (Q7ZJM1 whole entry): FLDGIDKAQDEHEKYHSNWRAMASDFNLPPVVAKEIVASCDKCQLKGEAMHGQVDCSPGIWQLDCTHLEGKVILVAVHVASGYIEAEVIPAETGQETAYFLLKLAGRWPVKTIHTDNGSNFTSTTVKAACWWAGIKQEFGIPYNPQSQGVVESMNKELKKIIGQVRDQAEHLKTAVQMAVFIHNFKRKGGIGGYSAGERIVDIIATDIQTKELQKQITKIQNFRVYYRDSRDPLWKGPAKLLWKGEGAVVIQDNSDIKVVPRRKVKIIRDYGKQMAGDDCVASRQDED
T2 sequence (Q7ZJM1 entry or part of it A128T): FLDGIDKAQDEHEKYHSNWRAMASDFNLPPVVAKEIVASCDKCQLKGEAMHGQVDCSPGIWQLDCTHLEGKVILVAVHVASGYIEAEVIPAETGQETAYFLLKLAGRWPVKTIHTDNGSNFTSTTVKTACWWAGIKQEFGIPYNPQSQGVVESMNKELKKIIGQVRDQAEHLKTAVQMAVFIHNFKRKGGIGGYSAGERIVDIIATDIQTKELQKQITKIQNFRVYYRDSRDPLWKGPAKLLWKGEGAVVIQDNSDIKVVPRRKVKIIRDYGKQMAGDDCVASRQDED

As to `COC(C(=O)O)c1c(C)nc2ccc(Br)cc2c1-c1ccc(Cl)cc1` (stereo not drawn), the IC50 in experiment [1] came out at 1.3 µM.
On to `Cn1c(C(OC(C)(C)C)C(=O)O)c(-c2ccc3c(c2)CCCO3)c2ccccc21` (stereo not drawn), for which the IC50 in experiment [2] was determined as 3.2 µM; in experiment [1] it was 4.5 µM; in experiment [4], 0.9 µM; in experiment [6] it was 28.7 µM. For the same compound, the half-maximal effective concentration (EC50) was 16.1 µM in experiment [3] and 16 µM in experiment [5].
Regarding `Cn1c(C(OC(C)(C)C)C(=O)O)c(Cc2ccccc2)c2ccccc21` (stereo not drawn), in experiment [1], the IC50 came out at 31.3 µM.
Still for that read-out and setting: the same measure for `Cn1c(CC(OC(C)(C)C)C(=O)O)c(-c2ccccc2)c2ccccc21` (stereo not drawn): greater than 100 µM; for `COc1ccc(-n2c(C(OC(C)(C)C)C(=O)O)c(C)c3ccccc32)cc1` (stereo not drawn): greater than 100 µM; for `COc1ccc(-c2c(C(OC(C)(C)C)C(=O)O)n(C)c3ccccc23)cc1` (stereo not drawn): 32 µM.
The same measure, in the same setting: in the case of `COc1ccc(-c2c(C(OC(C)(C)C)C(=O)O)n(Cc3ccccc3)c3ccccc23)cc1` (stereo not drawn) it was 59.1 µM.
The same measure, in the same setting: in the case of `Cn1c(C(OC(C)(C)C)C(=O)O)c(-c2ccccc2)c2ccccc21` (stereo not drawn) it was 44.1 µM.
